Assay results from patent publication US7884215B2, “2-substituted benzimidazoles” (priority 2005, dated 2011).

Test system: Respiratory Syncytial Virus
Test: microbe, parasite or virus in culture
Assay type: cell-based
Conditions: human respiratory syncytial virus, 168 h; antiviral activity; protection against cytopathology caused by RSV in HeLa cells, MTT read-out seven days after infection
Protocol: The percent protection against cytopathology caused by viruses (antiviral activity or EC50) achieved by tested compounds and their cytotoxicity (CC50) are both calculated from dose-response curves.
Automated tetrazolium-based colorimetric assays were used for determination of EC50 and CC50 of test compounds. […] Subsequently, stock solutions (7.8× final test concentration) of compounds were added in 45 μl volumes to a series of triplicate wells so as to allow simultaneous evaluation of their effects on virus- and mock-infected cells. Five five-fold dilutions were made directly in the microtiter trays using a robot system. Untreated virus controls, and HeLa cell controls were included in each test. Approximately 100 TCID50 of Respiratory Syncytial Virus was added to two of the three rows in a volume of 50 μl. The same volume of medium was added to the third row to measure the cytotoxicity of the compounds at the same concentrations as those used to measure the antiviral activity. […] Finally, the absorbances were read in an eight-channel computer-controlled photometer (Multiskan MCC, Flow Laboratories) at two wavelengths (540 and 690 nm). The absorbance measured at 690 nm was automatically subtracted from the absorbance at 540 nm, so as to eliminate the effects of non-specific absorption.

SMILES: Cc1ccc(CCCO)c(NCc2ccc3nc(C(N)=O)n(Cc4nc(C)ccc4O)c3c2)c1 [d-10]
- EC50: 631 nM
